Data published in publication PMC2817752, “Phenylbutyric Acid Rescues Endoplasmic Reticulum Stress-Induced Suppression of APP Proteolysis and Prevents Apoptosis in Neuronal Cells” (PLoS ONE, 2010).

Biological target: T1, γ-secretase (presenilin-1, PS1) (Mus musculus, UniProt P49769)
T1 construct: gene Psen1; endogenous γ-secretase complex in N2a (NAG) cells, APPGV16 as substrate; with Nicastrin and the other subunits of the heterotetrameric γ-secretase complex
Experiment: Gal4-luciferase reporter of γ-secretase cleavage of APPGV16 in stable N2a cells, […] h; CTF accumulation by western blot
Format: cell-based

SMILES: C[C@H](NC(=O)Cc1cc(F)cc(F)c1)C(=O)N[C@H](C(=O)OC(C)(C)C)c1ccccc1 [DAPT]
- IC50: ~1000 nM
